Results as given in patent US10294202B2, “Pyrrolidinones as herbicides” (FMC Corporation, priority 2013, dated 2019).

Key:
[1] = system: waterhemp; experiment: Test C pre-/postemergence herbicide test; type: in vivo, Amaranthus rudis
In short: (§1)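 Test compounds, formulated in a surfactant-containing non-phytotoxic solvent blend, are applied to seeded loam/sand soil (preemergence) and to young plants at the 1- to 4-leaf stage in peat-based medium (postemergence). Plants stay 13 to 15 days under greenhouse conditions, then are scored visually relative to controls, 0 = no effect, 100 = complete control.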

[2] = system: johnsongrass; experiment: Test C pre-/postemergence herbicide test; type: in vivo, Sorghum halepense
In short: as §1

[3] = system: morningglory; experiment: Test C pre-/postemergence herbicide test; type: in vivo, Ipomoea coccinea
In short: as §1

[4] = system: wheat (winter wheat); experiment: Test C pre-/postemergence herbicide test; type: in vivo, Triticum aestivum; conditions: for Plant response rating, Wheat: Postemergence; for Wheat plant response rating / Plant response rating (scale of 0 to 100), Wheat: Preemergence
In short: as §1

[5] = system: crabgrass, large; experiment: Test C pre-/postemergence herbicide test; type: in vivo, Digitaria sanguinalis
In short: as §1

[6] = system: wheat; experiment: Test A pre-/postemergence herbicide test; type: in vivo, Triticum aestivum; conditions: Postemergence
In short: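 Planted in loam–sand blend; treated the same day preemergence by directed soil spray, while separately grown plants at one- to two-leaf stage got postemergence spray. Compared visually with untreated controls after approximately 10 days; 100 means complete control.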

[7] = system: pigweed; experiment: Test C pre-/postemergence herbicide test; type: in vivo, Amaranthus retroflexus
In short: as §1

[8] = system: sedge, umbrella; experiment: Test B flooded paddy test; type: in vivo, Cyperus difformis; conditions: 500 g ai/ha, Flood; scale of 0 to 100 where 0 is no effect and 100 is complete control
In short: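 Scoring: visual, compared with untreated controls, 0 = no effect through 100 = complete control, taken 13 to 15 days after treatment in the greenhouse. Compounds had been added to paddy water over soil flooded 3 cm deep at the plants' 2-leaf stage.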

[9] = system: galium; experiment: Test C pre-/postemergence herbicide test; type: in vivo, Galium aparine
In short: as §1

[10] = system: lambsquarters; experiment: Test C pre-/postemergence herbicide test; type: in vivo, Chenopodium album
In short: as §1

[11] = system: blackgrass; experiment: Test C pre-/postemergence herbicide test; type: in vivo, Alopecurus myosuroides
In short: as §1

[12] = Postemergence, 31 g ai/ha, scale 0 to 100 (0 no effect, 100 complete control)
[13] = Postemergence, 62 g ai/ha, scale 0 (no effect) to 100 (complete control)
[14] = Postemergence, 125 g ai/ha, scale 0 to 100 (0 no effect, 100 complete control)
[15] = Postemergence, 250 g ai/ha, scale 0 to 100 (0 no effect, 100 complete control)
[16] = Preemergence, 31 g ai/ha, scale 0 to 100, 0 is no effect and 100 is complete control
[17] = Preemergence, 62 g ai/ha, scale 0 to 100 (0 no effect, 100 complete control)
[18] = Preemergence, 125 g ai/ha, scale 0 to 100 (0 no effect, 100 complete control)
[19] = 31 g ai/ha, scale 0 to 100 (0 no effect, 100 complete control)
[20] = 62 g ai/ha, scale 0 (no effect) to 100 (complete control)
[21] = 125 g ai/ha, scale 0 to 100 (0 no effect, 100 complete control)
[22] = 250 g ai/ha, scale 0 to 100 (0 no effect, 100 complete control)
[23] = 31 g ai/ha, scale 0 to 100, 0 is no effect and 100 is complete control
[24] = 62 g ai/ha, scale 0 to 100 (0 no effect, 100 complete control)
[25] = 125 g ai/ha, visual rating on 0 to 100 scale (0 no effect, 100 complete control), approx. 10 days
[26] = 500 g ai/ha, 0 to 100 scale (0 no effect, 100 complete control)

O=C1NCC(c2cccc(Cl)c2)C1C(=O)Nc1cccc(F)c1F (racemic) [Compound 275]
Plant response rating, Waterhemp [1, 12]: 0
Plant response rating, Waterhemp [1, 13]: 0
Plant response rating, Waterhemp [1, 14]: 0
Plant response rating, Waterhemp [1, 15]: 20
Waterhemp plant response rating [1, 16]: 0
Waterhemp plant response rating [1, 17]: 0
Plant response rating, Waterhemp [1, 18]: 15
Plant response rating (scale of 0 to 100), Waterhemp ([1]; Preemergence, 250 g ai/ha): 60
Plant response rating, Johnsongrass [2, 12]: 0
Plant response rating, Johnsongrass [2, 13]: 0
Plant response rating, Johnsongrass [2, 14]: 0
Plant response rating, Johnsongrass [2, 15]: 25
Johnsongrass plant response rating [2, 16]: 10
Johnsongrass plant response rating [2, 17]: 50
Plant response rating, Johnsongrass [2, 18]: 75
Plant response rating (scale of 0 to 100), Johnsongrass ([2]; Preemergence, 250 g ai/ha): 85
Plant response rating, Morningglory [3, 12]: 10
Plant response rating, Morningglory [3, 13]: 10
Plant response rating, Morningglory [3, 14]: 20
Plant response rating, Morningglory [3, 15]: 20
Morningglory plant response rating [3, 16]: 0
Morningglory plant response rating [3, 17]: 0
Plant response rating, Morningglory [3, 18]: 0
Plant response rating (scale of 0 to 100), Morningglory ([3]; Preemergence, 250 g ai/ha): 50
Plant response rating, Wheat [4, 19]: 0
Plant response rating, Wheat [4, 20]: 0
Plant response rating, Wheat [4, 21]: 0
Plant response rating, Wheat [4, 22]: 0
Wheat plant response rating [4, 23]: 5
Wheat plant response rating [4, 24]: 45
Plant response rating (scale of 0 to 100), Wheat ([4]; 250 g ai/ha): 90
Plant response rating, Crabgrass, Large [5, 12]: 15
Plant response rating, Crabgrass, Large [5, 13]: 40
Plant response rating, Crabgrass, Large [5, 14]: 65
Plant response rating, Crabgrass, Large [5, 15]: 85
Crabgrass, Large plant response rating [5, 16]: 90
Crabgrass, Large plant response rating [5, 17]: 95
Plant response rating, Crabgrass, Large [5, 18]: 100
Plant response rating (scale of 0 to 100), Crabgrass, Large ([5]; Preemergence, 250 g ai/ha): 100
Plant response rating, Wheat [6, 25]: 40
Plant response rating, Wheat [6, 26]: 70
Plant response rating, Pigweed [7, 12]: 5
Plant response rating, Pigweed [7, 13]: 5
Plant response rating, Pigweed [7, 14]: 30
Plant response rating, Pigweed [7, 15]: 35
Pigweed plant response rating [7, 16]: 0
Pigweed plant response rating [7, 17]: 0
Plant response rating, Pigweed [7, 18]: 10
Plant response rating (scale of 0 to 100), Pigweed ([7]; Preemergence, 250 g ai/ha): 40
Plant response rating, Sedge, Umbrella [8]: 30
Plant response rating, Galium [9, 12]: 50
Plant response rating, Galium [9, 13]: 55
Plant response rating, Galium [9, 14]: 75
Plant response rating, Galium [9, 15]: 80
Galium plant response rating [9, 16]: 0
Galium plant response rating [9, 17]: 90
Plant response rating, Galium [9, 18]: 30
Plant response rating (scale of 0 to 100), Galium ([9]; Preemergence, 250 g ai/ha): 85
Plant response rating, Lambsquarters [10, 12]: 10
Plant response rating, Lambsquarters [10, 13]: 60
Plant response rating, Lambsquarters [10, 14]: 75
Plant response rating, Lambsquarters [10, 15]: 75
Lambsquarters plant response rating [10, 16]: 70
Lambsquarters plant response rating [10, 17]: 75
Plant response rating, Lambsquarters [10, 18]: 85
Plant response rating (scale of 0 to 100), Lambsquarters ([10]; Preemergence, 250 g ai/ha): 98
Plant response rating, Blackgrass [11, 12]: 0
Plant response rating, Blackgrass [11, 13]: 0
Plant response rating, Blackgrass [11, 14]: 5
Plant response rating, Blackgrass [11, 15]: 40
Blackgrass plant response rating [11, 16]: 45
Blackgrass plant response rating [11, 17]: 60
Plant response rating, Blackgrass [11, 18]: 70
Plant response rating (scale of 0 to 100), Blackgrass ([11]; Preemergence, 250 g ai/ha): 80

O=C1NCC(c2cc(F)cc(F)c2)C1C(=O)Nc1ccc(F)cc1F (racemic) [Compound 278]
Plant response rating, Waterhemp [1, 12]: 0
Plant response rating, Waterhemp [1, 13]: 0
Plant response rating, Waterhemp [1, 14]: 5
Plant response rating, Waterhemp [1, 15]: 5
Waterhemp plant response rating [1, 16]: 0
Waterhemp plant response rating [1, 17]: 0
Plant response rating, Waterhemp [1, 18]: 0
Plant response rating (scale of 0 to 100), Waterhemp ([1]; Preemergence, 250 g ai/ha): 0
Plant response rating, Johnsongrass [2, 12]: 0
Plant response rating, Johnsongrass [2, 13]: 0
Plant response rating, Johnsongrass [2, 14]: 0
Plant response rating, Johnsongrass [2, 15]: 0
Johnsongrass plant response rating [2, 16]: 0
Johnsongrass plant response rating [2, 17]: 0
Plant response rating, Johnsongrass [2, 18]: 0
Plant response rating (scale of 0 to 100), Johnsongrass ([2]; Preemergence, 250 g ai/ha): 0
Plant response rating, Morningglory [3, 12]: 0
Plant response rating, Morningglory [3, 13]: 0
Plant response rating, Morningglory [3, 14]: 45
Plant response rating, Morningglory [3, 15]: 0
Morningglory plant response rating [3, 16]: 0
Morningglory plant response rating [3, 17]: 0
Plant response rating, Morningglory [3, 18]: 0
Plant response rating (scale of 0 to 100), Morningglory ([3]; Preemergence, 250 g ai/ha): 0
Plant response rating, Wheat [4, 19]: 0
Plant response rating, Wheat [4, 20]: 0
Plant response rating, Wheat [4, 21]: 0
Plant response rating, Wheat [4, 22]: 0
Wheat plant response rating [4, 23]: 0
Wheat plant response rating [4, 24]: 0
Plant response rating (scale of 0 to 100), Wheat ([4]; 250 g ai/ha): 0
Plant response rating, Crabgrass, Large [5, 12]: 0
Plant response rating, Crabgrass, Large [5, 13]: 30
Plant response rating, Crabgrass, Large [5, 14]: 65
Plant response rating, Crabgrass, Large [5, 15]: 75
Crabgrass, Large plant response rating [5, 16]: 90
Crabgrass, Large plant response rating [5, 17]: 95
Plant response rating, Crabgrass, Large [5, 18]: 98
Plant response rating (scale of 0 to 100), Crabgrass, Large ([5]; Preemergence, 250 g ai/ha): 100
Plant response rating, Wheat [6, 25]: 0
Plant response rating, Wheat [6, 26]: 0
Plant response rating, Pigweed [7, 12]: 0
Plant response rating, Pigweed [7, 13]: 5
Plant response rating, Pigweed [7, 14]: 15
Plant response rating, Pigweed [7, 15]: 15
Pigweed plant response rating [7, 16]: 5
Pigweed plant response rating [7, 17]: 0
Plant response rating, Pigweed [7, 18]: 0
Plant response rating (scale of 0 to 100), Pigweed ([7]; Preemergence, 250 g ai/ha): 0
Plant response rating, Sedge, Umbrella [8]: 0
Plant response rating, Galium [9, 12]: 0
Plant response rating, Galium [9, 13]: 0
Plant response rating, Galium [9, 14]: 5
Plant response rating, Galium [9, 15]: 20
Galium plant response rating [9, 16]: 0
Galium plant response rating [9, 17]: 0
Plant response rating, Galium [9, 18]: 0
Plant response rating (scale of 0 to 100), Galium ([9]; Preemergence, 250 g ai/ha): 5
Plant response rating, Lambsquarters [10, 12]: 0
Plant response rating, Lambsquarters [10, 13]: 0
Plant response rating, Lambsquarters [10, 14]: 20
Plant response rating, Lambsquarters [10, 15]: 20
Lambsquarters plant response rating [10, 16]: 0
Lambsquarters plant response rating [10, 17]: 0
Plant response rating, Lambsquarters [10, 18]: 0
Plant response rating (scale of 0 to 100), Lambsquarters ([10]; Preemergence, 250 g ai/ha): 0
Plant response rating, Blackgrass [11, 12]: 0
Plant response rating, Blackgrass [11, 13]: 0
Plant response rating, Blackgrass [11, 14]: 0
Plant response rating, Blackgrass [11, 15]: 0
Blackgrass plant response rating [11, 16]: 0
Blackgrass plant response rating [11, 17]: 0
Plant response rating, Blackgrass [11, 18]: 0
Plant response rating (scale of 0 to 100), Blackgrass ([11]; Preemergence, 250 g ai/ha): 0
